Data reported in paper PMC4582818, “Identification of novel metabolic interactions controlling carbon flux from xylose to ethanol in natural and recombinant yeasts” (Biotechnology for Biofuels, 2015).
Each block holds one molecule with its values, some of them ahead of it.

Tests used:
CtG6PDH = target: T1, CtG6PDH (Yamadazyma tenuis, UniProt G3B8L7); test: enzyme kinetics, product inhibition; type: cell-based; conditions: competitive product inhibition; read-out: K i,NADPH
T1 construct: gene CANTEDRAFT_115211; native enzyme, probably in cell-free extract of CBS4435 (details only in Additional file 3)
T1 sequence (G3B8L7 1-502): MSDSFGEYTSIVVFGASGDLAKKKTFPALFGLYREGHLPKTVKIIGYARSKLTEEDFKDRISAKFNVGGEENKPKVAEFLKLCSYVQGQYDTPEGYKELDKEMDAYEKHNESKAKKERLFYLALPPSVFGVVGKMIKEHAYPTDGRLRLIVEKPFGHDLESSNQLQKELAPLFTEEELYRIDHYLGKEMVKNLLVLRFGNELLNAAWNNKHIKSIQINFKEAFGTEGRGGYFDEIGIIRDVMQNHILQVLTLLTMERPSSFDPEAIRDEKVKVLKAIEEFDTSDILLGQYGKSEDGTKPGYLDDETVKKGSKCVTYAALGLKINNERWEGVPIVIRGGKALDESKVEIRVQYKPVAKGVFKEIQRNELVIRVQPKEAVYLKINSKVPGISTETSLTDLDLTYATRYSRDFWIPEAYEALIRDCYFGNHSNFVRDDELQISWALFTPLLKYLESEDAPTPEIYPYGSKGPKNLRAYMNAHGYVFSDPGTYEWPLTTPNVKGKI
Excerpt: enzyme kinetics, product inhibition on CtG6PDH

CtXR [1] = target: T2, CtXR (Yamadazyma tenuis, UniProt O74237); test: ligand-binding analysis by fluorescence spectroscopy; conditions: read-out: NADP(H) (R 2) / PP (R 5), UG (R 9), LG (R 10)
T2 construct: gene XYL1; xylose reductase of C. tenuis CBS4435; preparation described only in Additional file 3
T2 sequence (O74237 1-322): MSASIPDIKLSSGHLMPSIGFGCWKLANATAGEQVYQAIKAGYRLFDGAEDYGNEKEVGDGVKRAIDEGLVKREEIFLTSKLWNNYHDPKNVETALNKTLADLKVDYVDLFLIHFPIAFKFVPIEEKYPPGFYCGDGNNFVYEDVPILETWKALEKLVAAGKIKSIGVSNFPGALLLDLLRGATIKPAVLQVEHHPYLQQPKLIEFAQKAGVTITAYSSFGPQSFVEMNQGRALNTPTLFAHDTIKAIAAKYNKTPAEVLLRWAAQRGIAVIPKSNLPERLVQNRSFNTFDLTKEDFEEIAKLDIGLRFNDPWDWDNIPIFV
Excerpt: ligand-binding analysis by fluorescence spectroscopy on CtXR

CtXR [2] = target: T2, CtXR; test: steady-state kinetics; type: biochemical
Excerpt: (§1) steady-state kinetics on CtXR

steady-state kinetics [3] = substrate: NC(=O)C1=CN([C@@H]2O[C@H](COP(=O)(O)OP(=O)(O)OC[C@H]3O[C@@H](n4cnc5c(N)ncnc54)[C@H](O)[C@@H]3O)[C@@H](O)[C@H]2O)C=CC1; test: steady-state kinetics; type: biochemical, Yamadazyma tenuis; conditions: xylose reduction; pH 7.5; 25.0 °C; varied: cofactor
Excerpt: as §1

steady-state kinetics [4] = substrate: NC(=O)C1=CN([C@@H]2O[C@H](COP(=O)(O)OP(=O)(O)OC[C@H]3O[C@@H](n4cnc5c(N)ncnc54)[C@H](OP(=O)(O)O)[C@@H]3O)[C@@H](O)[C@H]2O)C=CC1; test: steady-state kinetics; type: biochemical, Yamadazyma tenuis; conditions: xylose reduction; pH 7.5; 25.0 °C; varied: cofactor
Excerpt: as §1

steady-state kinetics [5] = substrate: NC(=O)c1ccc[n+]([C@@H]2O[C@H](COP(=O)(O)OP(=O)(O)OC[C@H]3O[C@@H](n4cnc5c(N)ncnc54)[C@H](O)[C@@H]3O)[C@@H](O)[C@H]2O)c1; test: steady-state kinetics; type: biochemical, Yamadazyma tenuis; conditions: xylitol oxidation; pH 7.5; 25.0 °C; varied: cofactor
Excerpt: as §1

steady-state kinetics [6] = substrate: NC(=O)c1ccc[n+]([C@@H]2O[C@H](COP(=O)(O)OP(=O)(O)OC[C@H]3O[C@@H](n4cnc5c(N)ncnc54)[C@H](OP(=O)(O)O)[C@@H]3O)[C@@H](O)[C@H]2O)c1; test: steady-state kinetics; type: biochemical, Yamadazyma tenuis; conditions: xylitol oxidation; pH 7.5; 25.0 °C; varied: cofactor
Excerpt: as §1

Molecule: NC(=O)c1ccc[n+]([C@@H]2O[C@H](COP(=O)(O)OP(=O)(O)OC[C@H]3O[C@@H](n4cnc5c(N)ncnc54)[C@H](OP(=O)(O)O)[C@@H]3O)[C@@H](O)[C@H]2O)c1 [NADP^+]
Kd (CtXR [1]): 5.9 ± 0.4 µM

B1: CtXR (Yamadazyma tenuis) (protein)
chain: MSASIPDIKLSSGHLMPSIGFGCWKLANATAGEQVYQAIKAGYRLFDGAEDYGNEKEVGDGVKRAIDEGLVKREEIFLTSKLWNNYHDPKNVETALNKTLADLKVDYVDLFLIHFPIAFKFVPIEEKYPPGFYCGDGNNFVYEDVPILETWKALEKLVAAGKIKSIGVSNFPGALLLDLLRGATIKPAVLQVEHHPYLQQPKLIEFAQKAGVTITAYSSFGPQSFVEMNQGRALNTPTLFAHDTIKAIAAKYNKTPAEVLLRWAAQRGIAVIPKSNLPERLVQNRSFNTFDLTKEDFEEIAKLDIGLRFNDPWDWDNIPIFV
notes: xylose reductase of C. tenuis CBS4435; preparation described only in Additional file 3
Km (steady-state kinetics [3]): 40 ± 10 µM
Km (steady-state kinetics [4]): 5 ± 2 µM
Km (steady-state kinetics [5]): 19 ± 5 µM
Km (steady-state kinetics [6]): 8 ± 1 µM

Now from value to molecule:

Ki (CtG6PDH): 200 µM
Molecule: NC(=O)C1=CN([C@@H]2O[C@H](COP(=O)(O)OP(=O)(O)OC[C@H]3O[C@@H](n4cnc5c(N)ncnc54)[C@H](OP(=O)(O)O)[C@@H]3O)[C@@H](O)[C@H]2O)C=CC1 [NADPH]

Ki (CtXR [2]; read-out: NAD(H) (R 1)): 344 ± 30 µM
Molecule: NC(=O)c1ccc[n+]([C@@H]2O[C@H](COP(=O)(O)OP(=O)(O)OC[C@H]3O[C@@H](n4cnc5c(N)ncnc54)[C@H](O)[C@@H]3O)[C@@H](O)[C@H]2O)c1 [NAD^+]

NAD(H) (R 1) (CtXR [2]; dissociation constant of NADH in the rate equation, xylose reduction): 0.18 ± 0.04 mM
Molecule: NC(=O)C1=CN([C@@H]2O[C@H](COP(=O)(O)OP(=O)(O)OC[C@H]3O[C@@H](n4cnc5c(N)ncnc54)[C@H](O)[C@@H]3O)[C@@H](O)[C@H]2O)C=CC1 [NADH]
